Results as given in PubChem BioAssay (NCI).
Values joined by “and” are separate entries in the source; they are usually repeats but may differ in a detail not shown here. Equal values may be shown once.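 Compound exposure: 48 hours, 5 concentrations, 96-well plates. GI50 marks 50% less growth. TGI denotes the concentration required for complete inhibition of growth.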

What was measured:
Assay in all cases: growth of human tumour cells (NCI), 48 h
OVCAR-3 ovarian = system: OVCAR-3 ovarian
UACC-257 melanoma = system: UACC-257 melanoma
CAKI-1 renal = system: CAKI-1 renal
COLO 205 colon = system: COLO 205 colon
SF-268 CNS = system: SF-268 CNS
HCT-15 colon = system: HCT-15 colon
HCC-2998 colon = system: HCC-2998 colon
LOX IMVI melanoma = system: LOX IMVI melanoma
MOLT-4 leukemia = system: MOLT-4 leukemia
A498 renal = system: A498 renal

| Structure (SMILES) | GI50 (OVCAR-3 ovarian) | TGI (OVCAR-3 ovarian) | TGI (UACC-257 melanoma) | GI50 (CAKI-1 renal) | TGI (CAKI-1 renal) | GI50 (COLO 205 colon) | TGI (COLO 205 colon) | GI50 (SF-268 CNS) | TGI (SF-268 CNS) | GI50 (HCT-15 colon) | TGI (HCT-15 colon) | GI50 (HCC-2998 colon) | TGI (HCC-2998 colon) | GI50 (LOX IMVI melanoma) | TGI (LOX IMVI melanoma) | GI50 (MOLT-4 leukemia) | TGI (MOLT-4 leukemia) | GI50 (A498 renal) | TGI (A498 renal) | GI50 (UACC-257 melanoma) |
| --- | --- | --- | --- | --- | --- | --- | --- | --- | --- | --- | --- | --- | --- | --- | --- | --- | --- | --- | --- | --- |
| CCc1nc(N)nc(N)c1C#CC(C)c1cc(-c2ccnc(C)c2)c2oc(C)nc2c1 (centres undefined) | 0.0893 µM | 15 µM | 13.2 µM | < 0.0109 µM | 5.58 µM | 0.0246 µM | 6.9 µM | < 0.01 µM | 6.02 µM | < 0.01 µM | 11.3 µM | 0.0206 µM | 5.95 µM | < 0.01 µM | 2.3 µM | < 0.01 µM | 8.81 µM | 0.117 µM | 4.89 µM |  |
| COc1ccc(/C=N\O[Si](C)(C)C(C)(C)C)cc1O[Si](C)(C)C(C)(C)C |  | 31 µM | 43.3 µM |  | 40.2 µM |  | 52.2 µM |  | 39.4 µM |  | 34 µM |  | 32.9 µM |  | 36.5 µM |  | 36.5 µM |  | 33.2 µM |  |
| c1ccc2c(CN3CCC(C4CCN(Cc5cccc6ccccc56)CC4)CC3)cccc2c1 |  | > 100 µM | 4.25 µM and 11.9 µM | 3.7 µM and 34.3 µM | 21.2 µM and > 100 µM |  | 3.39 µM and 3.65 µM | 8.99 µM and 78.7 µM | 28.4 µM and > 100 µM | 2.95 µM and 8.46 µM | 16.6 µM and > 100 µM |  | 2.97 µM and 5.61 µM | 4.33 µM and 10.2 µM | 16.8 µM and 23.4 µM |  | 26.6 µM and 99.1 µM | 7.34 µM | > 72.8 µM and 86 µM |  |
| COc1ccc2c(c1)C=C1CSCC3=Cc4cc(OC)ccc4OC13O2 | 0.295 µM | 0.884 µM | > 100 µM | 0.41 µM | > 100 µM | 0.292 µM | 0.917 µM | 2.86 µM | > 100 µM | 0.359 µM | > 100 µM | 1.07 µM | > 100 µM | 0.656 µM | > 100 µM | 0.486 µM | > 100 µM | 0.23 µM | 0.766 µM | > 100 µM |
| CCCC(CCC)C(=O)OCC1(CO)C/C(=C\c2ccc(C(F)(F)F)cc2)C(=O)O1 (centres undefined) | 19.8 µM | 36.1 µM | 33.4 µM | 6.16 µM | 21.2 µM | 0.577 µM | 9.37 µM | 16.2 µM | 33.3 µM | 12.8 µM | 26.9 µM | 10.9 µM | 24 µM | 10 µM | 22.8 µM | 14.3 µM | 31.9 µM | 0.105 µM | 10.3 µM | 18.1 µM |
| Nc1ccc(C2=Nc3ccccc3SC(c3ccccc3O)C2)cc1 (centres undefined) |  | > 100 µM | > 100 µM |  | > 100 µM |  | > 100 µM |  | > 100 µM |  | > 100 µM |  | > 100 µM |  | > 100 µM |  | 58.5 µM |  | 74.1 µM |  |
| CNc1ncc2cc(Oc3ccc(F)cc3F)c(=O)n(C)c2n1 | > 25 µM | > 25 µM | > 25 µM | > 25 µM | > 25 µM | > 25 µM | > 25 µM | > 25 µM | > 25 µM | > 25 µM | > 25 µM | > 25 µM | > 25 µM | > 25 µM | > 25 µM | > 25 µM | > 25 µM | 11.9 µM | > 25 µM | > 25 µM |
| O=C1/C(=C\c2ccccc2)c2ccccc2N1/N=C\c1ccccc1 |  | > 100 µM | > 100 µM |  | > 100 µM |  | > 100 µM |  | > 100 µM |  | > 100 µM |  | > 100 µM |  | > 100 µM |  | > 100 µM |  | > 100 µM |  |
| CC1=NN(C(=O)c2nn(-c3ccc(Cl)cc3)cc2O)C(=O)C1 | 1.34 µM | > 27.9 µM | 28.9 µM | 1.89 µM | 26.4 µM | 3.78 µM | > 82.6 µM | 0.632 µM | > 100 µM | 0.845 µM | > 100 µM | 3.37 µM | > 100 µM | 2.66 µM | > 100 µM | 1.24 µM | > 100 µM | 2.92 µM | > 82 µM | 6.27 µM |
| O=C1NN=CN2C(=O)CCC12 (centres undefined) |  | > 100 µM | > 100 µM |  | > 100 µM |  | > 100 µM |  | > 100 µM |  | > 100 µM |  | > 100 µM |  | > 100 µM |  | > 100 µM |  | > 100 µM |  |
